# Measurements as given in patent US9732119B2, “Immunomodulators” (BRISTOL-MYERS SQUIBB COMPANY, priority 2014, dated 2017).
# Positions of bridges follow the written chain, without caps; N, C: chain ends. Non-standard residues stand in square brackets, D forms with d. Residues, ends and D or L forms follow the SMILES beside them. Trp(1-CH2COOH) = N[C@@H](Cc1cn(CC(=O)O)c2ccccc12)C(=O)O; Phe(4-Cl) = N[C@@H](Cc1ccc(Cl)cc1)C(=O)O; Phe(4-F) = N[C@@H](Cc1ccc(F)cc1)C(=O)O; Phe(4-Me) = Cc1ccc(C[C@H](N)C(=O)O)cc1; Hyp = O=C(O)[C@@H]1C[C@@H](O)CN1; NMeNle = CCCC[C@H](NC)C(=O)O; dOrn = NCCC[C@@H](N)C(=O)O; Pip = O=C(O)[C@@H]1CCCCN1; Orn = NCCC[C@H](N)C(=O)O; Dab = NCC[C@H](N)C(=O)O; Dap = NC[C@H](N)C(=O)O; Ava = NCCCCC(=O)O
# Biological target: T1, PD-1-Ig binding to PD-L1-TVMV-His (PD-L1-His) (Homo sapiens, UniProt Q9NZQ7)
# T1 construct: hPDL1(19-239)-TVMV-His; made in house; host or cells: HEK293T cells
# T1 sequence (Q9NZQ7 with tags, fused parts or gaps): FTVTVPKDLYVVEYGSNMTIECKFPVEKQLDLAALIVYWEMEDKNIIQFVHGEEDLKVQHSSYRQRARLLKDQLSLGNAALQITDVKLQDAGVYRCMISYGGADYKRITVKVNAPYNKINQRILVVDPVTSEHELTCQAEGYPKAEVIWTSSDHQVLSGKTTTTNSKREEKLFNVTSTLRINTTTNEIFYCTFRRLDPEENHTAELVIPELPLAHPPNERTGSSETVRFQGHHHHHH
# Experiment: PD-1/PD-L1 Homogenous Time-Resolved Fluorescence (HTRF) binding assay
# Conditions: PD-1-Ig (20 nM) / PD-L1-His (10 nM); numeric values
# How it was run: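 HTRF competition: compound pre-incubated 15 min with PD-L1-His (10 nM final), then PD-1-Ig (20 nM final) added for 15 min in dPBS, 0.1% BSA, 0.05% Tween-20. Detection with Eu-cryptate anti-Ig (1 nM) and APC anti-His (20 nM) antibodies.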
row,SMILES,IC50 [nM]
1,CCCC[C@H]1C(=O)N(C)[C@@H](CCCC)C(=O)N[C@@H](CCC(=O)O)C(=O)N[C@H](C(=O)NCC(N)=O)CNCC(=O)N[C@@H](Cc2ccc(F)cc2)C(=O)N(C)[C@@H](C)C(=O)N[C@@H](CC(N)=O)C(=O)N2CCC[C@H]2C(=O)N[C@@H](CCC(N)=O)C(=O)N[C@@H](CCC(N)=O)C(=O)N2C[C@H](O)C[C@H]2C(=O)N[C@@H](Cc2c[nH]c3ccccc23)C(=O)N[C@@H](CC(N)=O)C(=O)N[C@@H](Cc2cn(CC(=O)O)c3ccccc23)C(=O)N1C [Example 9025],16

# Same assay, conditions: PD-1-Ig (20 nM) / PD-L1-His (10 nM); range classes
row,SMILES,IC50 [nM]
1,CCCC[C@H]1C(=O)N(C)[C@@H](CCCC)C(=O)N[C@@H](CC(C)C)C(=O)NCCCCC(=O)N[C@@H](Cc2ccc(OC)cc2)C(=O)N2CCCC[C@H]2C(=O)N[C@@H](CC(N)=O)C(=O)N2CCC[C@H]2C(=O)N[C@@H](CN)C(=O)N[C@@H](CC(C)C)C(=O)N2C[C@H](O)C[C@H]2C(=O)N[C@@H](Cc2c[nH]c3ccccc23)C(=O)N[C@@H](CCN)C(=O)N[C@@H](Cc2cn(CC(=O)O)c3ccccc23)C(=O)N1C [Example 10535] (cyclo([Ava]Y(Me)[Pip]NP[Dap]L[Hyp]W[Dab][Trp(1-CH2COOH)][NMeNle][NMeNle]L)),1 to 9.9
2,CCCC[C@H]1C(=O)N(C)[C@@H](CCCC)C(=O)NC(CC(C)C)C(=O)N[C@H](C(N)=O)CNCC(=O)N[C@@H](Cc2ccc(O)cc2)C(=O)N(C)[C@@H](C)C(=O)N[C@@H](CC(N)=O)C(=O)N2CCC[C@H]2C(=O)N[C@@H](CN)C(=O)N[C@@H](CC(C)C)C(=O)N2C[C@H](O)C[C@H]2C(=O)N[C@@H](Cc2c[nH]c3ccccc23)C(=O)N[C@@H](CCN)C(=O)N[C@@H](Cc2cn(CC(=O)O)c3ccccc23)C(=O)N1C (stereo partly drawn) [Example 1034],1 to 9.9
3,CCCC[C@H]1C(=O)N(C)[C@@H](CCCC)C(=O)N[C@@H](CC(C)C)C(=O)NCCC[C@@H](N)C(=O)N[C@@H](Cc2ccc(F)cc2)C(=O)N2CCCC[C@H]2C(=O)N[C@@H](CC(N)=O)C(=O)N2CCC[C@H]2C(=O)N[C@@H](CN)C(=O)N[C@@H](CC(C)C)C(=O)N2C[C@H](O)C[C@H]2C(=O)N[C@@H](Cc2c[nH]c3ccccc23)C(=O)N[C@@H](CCN)C(=O)N[C@@H](Cc2cn(CC(=O)O)c3ccccc23)C(=O)N1C [Example 10566] (H-[dOrn][Phe(4-F)][Pip]NP[Dap]L[Hyp]W[Dab][Trp(1-CH2COOH)][NMeNle][NMeNle]L; lactam 1-C),1 to 9.9
4,CCCC[C@H]1C(=O)N(C)[C@@H](CCCC)C(=O)N[C@@H](CC(C)C)C(=O)NCCC[C@@H](N)C(=O)N[C@@H](Cc2ccc(Cl)cc2)C(=O)N2CCCC[C@H]2C(=O)N[C@@H](CC(N)=O)C(=O)N2CCC[C@H]2C(=O)N[C@@H](CN)C(=O)N[C@@H](CC(C)C)C(=O)N2C[C@H](O)C[C@H]2C(=O)N[C@@H](Cc2c[nH]c3ccccc23)C(=O)N[C@@H](CCN)C(=O)N[C@@H](Cc2cn(CC(=O)O)c3ccccc23)C(=O)N1C [Example 10559] (H-[dOrn][Phe(4-Cl)][Pip]NP[Dap]L[Hyp]W[Dab][Trp(1-CH2COOH)][NMeNle][NMeNle]L; lactam 1-C),10 to 99
5,CCCC[C@H]1C(=O)N(C)[C@@H](CCCC)C(=O)N[C@@H](CC(C)C)C(=O)N[C@H](C(=O)NCC(N)=O)CCCNCC(=O)N[C@@H](Cc2ccc(O)cc2)C(=O)N(C)[C@@H](C)C(=O)N[C@@H](CC(N)=O)C(=O)N2CCC[C@H]2C(=O)N[C@@H](Cc2cnc[nH]2)C(=O)N[C@@H](CCC(N)=O)C(=O)N2C[C@H](O)C[C@H]2C(=O)N[C@@H](Cc2c[nH]c3ccccc23)C(=O)NCC(=O)N[C@@H](Cc2c[nH]c3ccccc23)C(=O)N1C [Example 10019],100 to 10000
6,CCCC[C@H]1C(=O)N(C)[C@@H](CCCC)C(=O)N[C@@H](CC(C)C)C(=O)NCCC[C@H](N)C(=O)N[C@@H](Cc2ccc(F)cc2)C(=O)N2CCCC[C@H]2C(=O)N[C@@H](CC(N)=O)C(=O)N2CCC[C@H]2C(=O)N[C@@H](CN)C(=O)N[C@@H](CCC(=O)O)C(=O)N2C[C@H](O)C[C@H]2C(=O)N[C@@H](Cc2c[nH]c3ccccc23)C(=O)N[C@@H](CCN)C(=O)N[C@@H](Cc2cn(CC(=O)O)c3ccccc23)C(=O)N1C [Example 10548] (H-[Orn][Phe(4-F)][Pip]NP[Dap]E[Hyp]W[Dab][Trp(1-CH2COOH)][NMeNle][NMeNle]L; lactam 1-C),10 to 99
7,CCCC[C@H]1C(=O)N(C)[C@@H](CCCC)C(=O)N[C@@H](CC(C)C)C(=O)N[C@H](C(=O)NCC(N)=O)CNCC(=O)N[C@@H](Cc2ccc(O)cc2)C(=O)N(C)[C@@H](C)C(=O)N[C@@H](CC(N)=O)C(=O)N2CCC[C@H]2C(=O)N[C@@H](CN)C(=O)N[C@@H](CC(C)C)C(=O)N2C[C@H](O)C[C@H]2C(=O)N[C@@H](Cc2c[nH]c3ccccc23)C(=O)N[C@@H](CCCN)C(=O)N[C@@H](Cc2cn(CC(=O)O)c3ccccc23)C(=O)N1C [Example 1036],1 to 9.9
8,CCCC[C@H]1C(=O)N(C)[C@@H](CCCC)C(=O)N[C@@H](CC(C)C)C(=O)N[C@H](C(N)=O)CNCC(=O)N[C@@H](Cc2ccc(F)cc2)C(=O)N2CCCC[C@H]2C(=O)N[C@@H](CC(=O)O)C(=O)N2CCC[C@H]2C(=O)N[C@@H](CCC(N)=O)C(=O)N[C@@H](CC(C)C)C(=O)N2C[C@H](O)C[C@H]2C(=O)N[C@@H](Cc2c[nH]c3ccccc23)C(=O)N[C@@H](CC(N)=O)C(=O)N[C@@H](Cc2cn(CC(=O)O)c3ccccc23)C(=O)N1C [Example 9038],1 to 9.9
9,CCCC[C@H]1C(=O)N(C)[C@@H](CCCC)C(=O)N[C@@H](CC(C)C)C(=O)NCCC[C@H](N)C(=O)N[C@@H](Cc2ccc(C)cc2)C(=O)N2CCCC[C@H]2C(=O)N[C@@H](CC(N)=O)C(=O)N2CCC[C@H]2C(=O)N[C@@H](CN)C(=O)N[C@@H](CC(C)C)C(=O)N2C[C@H](O)C[C@H]2C(=O)N[C@@H](Cc2c[nH]c3ccccc23)C(=O)N[C@@H](CCN)C(=O)N[C@@H](Cc2cn(CC(=O)O)c3ccccc23)C(=O)N1C [Example 10519] (H-[Orn][Phe(4-Me)][Pip]NP[Dap]L[Hyp]W[Dab][Trp(1-CH2COOH)][NMeNle][NMeNle]L; lactam 1-C),10 to 99
10,CCCC[C@H]1C(=O)N(C)[C@@H](CCCC)C(=O)N[C@@H](CC(C)C)C(=O)N[C@H](C(N)=O)CNCC(=O)N[C@@H](Cc2ccc(O)cc2)C(=O)N2CCCC[C@H]2C(=O)N[C@@H](CC(N)=O)C(=O)N2CCC[C@H]2C(=O)N[C@@H](Cc2c[nH]cn2)C(=O)N[C@@H](CCC(=O)O)C(=O)N2C[C@H](O)C[C@H]2C(=O)N[C@@H](Cc2c[nH]c3ccccc23)C(=O)N[C@@H](C)C(=O)N[C@@H](Cc2cn(CC(=O)O)c3ccccc23)C(=O)N1C [Example 9050],1 to 9.9
11,CCCC[C@H]1C(=O)N(C)[C@@H](CCCC)C(=O)N[C@@H](CC(C)C)C(=O)NCCCCC(=O)N[C@@H](Cc2ccc(Cl)cc2)C(=O)N2CCCC[C@H]2C(=O)N[C@@H](CC(N)=O)C(=O)N2CCC[C@H]2C(=O)N[C@@H](CN)C(=O)N[C@@H](CCC(=O)O)C(=O)N2C[C@H](O)C[C@H]2C(=O)N[C@@H](Cc2c[nH]c3ccccc23)C(=O)N[C@@H](CCN)C(=O)N[C@@H](Cc2cn(CC(=O)O)c3ccccc23)C(=O)N1C [Example 10544] (cyclo([Ava][Phe(4-Cl)][Pip]NP[Dap]E[Hyp]W[Dab][Trp(1-CH2COOH)][NMeNle][NMeNle]L)),1 to 9.9
